Reference: patent US9783532B2, “Molecules having certain pesticidal utilities, and intermediates, compositions, and processes related thereto” (Dow AgroSciences LLC, priority 2013, dated 2017)

Key:
Type in all cases: in vivo
[1] = tested on: Beet Armyworm (Spodoptera exigua) ("BAW"); assay: Bioassay on beet armyworm (BAW), 128-well diet tray assay; conditions: for mortality at 50 µg/cm2: 168 h, 50 μg/cm^2 on artificial diet, second instar BAW larvae, 25° C., five to seven days, average of eight wells, read-out: BAW % Control (or Mortality) rating; for pest or weed control at 50 µg/cm2: Table ABC (FB), activity rating class, read-out: BAW (Biological Results, Insect species)
Method in brief: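 Percent mortality, averaged across eight wells, was read after five to seven days at 25° C. under 14:10 light-dark. Each well held one to five second-instar larvae on artificial diet that had been treated with 50 μg/cm^2 compound in 90:10 acetone-water and dried.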

[2] = tested on: Cabbage Looper (Trichoplusia ni) ("CL"); assay: Bioassay on cabbage looper (CL), 128-well diet tray assay; conditions: for mortality at 50 µg/cm2: 168 h, 50 μg/cm^2 on artificial diet, second instar CL larvae, 25° C., five to seven days, average of eight wells, read-out: CL % Control (or Mortality) rating; for pest or weed control at 50 µg/cm2: Table ABC (FB), activity rating class, read-out: CL (Biological Results, Insect species)
Method in brief: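 Percent mortality, averaged across eight replicate wells, was read after five to seven days at 25 °C under a 14:10 photoperiod. Each well held one to five second-instar T. ni on diet carrying a dried 50 μg/cm^2 dose applied in acetone-water 90:10.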

[3] = tested on: Green Peach Aphid ("GPA") (Myzus persicae); assay: Bioassay on green peach aphid (GPA), foliar spray on cabbage seedlings; conditions: for mortality at 200 ppm: Myzus persicae, foliar, 72 h, 200 ppm spray on infested cabbage seedlings, three days, Abbott corrected % control, read-out: GPA % Control (or Mortality) rating; for GPA (Biological Results, Insect species): Table ABC (FB), activity rating class
Description: Certain molecules disclosed in this document were tested against GPA using procedures described in the following example. In the reporting of the results, the “GPA Rating Table” was used (See Table Section).
Cabbage seedlings grown in 3-inch pots, with 2-3 small (3-5 cm) true leaves, were used as test substrate. The seedlings were infested with 20-50 GPA (wingless adult and nymph stages) one day prior to chemical application. Four pots with individual seedlings were used for each treatment. Test compounds (2 mg) were dissolved in 2 mL of acetone/methanol (1:1) solvent, forming stock solutions of 1000 ppm test compound. The stock solutions were diluted 5× with 0.025% Tween 20 in water to obtain the solution at 200 ppm test compound. A hand-held aspirator-type sprayer was used for spraying a solution to both sides of […] leaves until runoff. Reference plants (solvent check) were sprayed with the diluent only containing 20% by volume of acetone/methanol (1:1) solvent. Treated plants were held in a holding room for three days at approximately 25° C. and ambient relative humidity (RH) prior to grading. Evaluation was conducted by counting the number of live aphids per plant under a microscope. Percent Control was measured by using Abbott's correction formula (W. S. Abbott, “A Method of Computing the Effectiveness of an Insecticide” J. Econ. Entomol. 18 (1925), pp. 265-267) as follows. Corrected % Control=100*(X−Y)/X • where • X=No. of live aphids on solvent check plants and • Y=No. of live aphids on treated plants

[4] = tested on: Yellow Fever Mosquito "YFM" (Aedes aegypti); conditions: for YFM % Control (or Mortality) rating: about 1 day-old larvae, 96-well plate, room temperature, 3 days; for YFM (Biological Results, Insect species): Table ABC (FB), activity rating class
Method in brief: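 About 1 day-old Aedes aegypti larvae in liver-powder water added to wells holding compound diluted from 4000 ppm DMSO stock with 90:10 water:acetone, 6 replicate plates. Plates kept covered at room temperature for 3 days. Wells scored for mortality and reported as rating categories.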

Cc1ccc(C(C)C)c(N2C(=O)CS/C2=N\C(=O)NCCc2ccc(-c3ncn(-c4ccc(OC(F)(F)C(F)(F)F)cc4)n3)cc2)c1 [F9, (Z)-1-(3-(2-isopropyl-5-methylphenyl)-4-oxothiazolidin-2-ylidene)-3-(4-(1-(4-(perfluoroethoxy)phenyl)-1H-1,2,4-triazol-3-yl)phenethyl)urea]
mortality at 50 µg/cm2 [1]: 50 to 100%
mortality at 50 µg/cm2 [2]: 50 to 100%
mortality at 200 ppm [3]: 0%
YFM % Control (or Mortality) rating [4]: A (80-100)

Cc1ccc(C(C)C)c(N2C(=O)CS/C2=N\C(=O)NCC(C)c2ccc(-c3ncn(-c4ccc(OC(F)(F)F)cc4)n3)cc2)c1 (centres unmarked) [F10, (Z)-1-(3-(2-isopropyl-5-methylphenyl)-4-oxothiazolidin-2-ylidene)-3-(2-(4-(1-(4-(trifluoromethoxy)phenyl)-1H-1,2,4-triazol-3-yl)phenyl)propyl)urea]
mortality at 50 µg/cm2 [1]: 50 to 100%
mortality at 50 µg/cm2 [2]: 50 to 100%
mortality at 200 ppm [3]: 0 to 80%
YFM % Control (or Mortality) rating [4]: A (80-100)

CC(C)c1ccccc1NC(=S)NC(=O)NCc1ccc(-c2ncn(-c3ccc(OC(F)(F)F)cc3)n2)cc1 [F14, N-[2-(propan-2-yl)phenyl]-N′-(4-{1-[4-(trifluoromethoxy)phenyl]-1H-1,2,4-triazol-3-yl}benzyl)dicarbonimidothioic diamide]
mortality at 50 µg/cm2 [1]: 50 to 100%
mortality at 50 µg/cm2 [2]: 50 to 100%
mortality at 200 ppm [3]: 0%
YFM % Control (or Mortality) rating [4]: A (80-100)

Cc1ccc(C(C)C)c(NC(=S)NC(=O)NCCCc2ccc(-c3ncn(-c4ccc(OC(F)(F)F)cc4)n3)cc2)c1 [F21, 1-[(2-isopropyl-5-methyl-phenyl)carbamothioyl]-3-[3-[4-[1-[4-(trifluoromethoxy)phenyl]-1H-1,2,4-triazol-3-yl]phenyl]propyl]urea]
mortality at 50 µg/cm2 [1]: 50 to 100%
mortality at 50 µg/cm2 [2]: 50 to 100%
mortality at 200 ppm [3]: 0%
YFM % Control (or Mortality) rating [4]: A (80-100)

CC(C)c1ccccc1N1C(=O)CS/C1=N\C(=O)NC1CC1c1ccc(-c2ncn(-c3ccc(OC(F)(F)F)cc3)n2)cc1 (centres unmarked) [F29, (Z)-1-(3-(2-isopropylphenyl)-4-oxothiazolidin-2-ylidene)-3-(2-(4-(1-(4-(trifluoromethoxy)phenyl)-1H-1,2,4-triazol-3-yl)phenyl)cyclopropyl)urea]
mortality at 50 µg/cm2 [1]: 50 to 100%
mortality at 50 µg/cm2 [2]: 50 to 100%
mortality at 200 ppm [3]: 0%
YFM % Control (or Mortality) rating [4]: A (80-100)

CCC(Cc1ccc(-c2ncn(-c3ccc(OC(F)(F)F)cc3)n2)cc1)NC(=O)/N=C1\SCC(=O)N1c1cc(C)ccc1C(C)C (centres unmarked) [FB43, (Z)-1-(3-(2-isopropyl-5-methylphenyl)-4-oxothiazolidin-2-ylidene)-3-(1-(4-(1-(4-(trifluoromethoxy)phenyl)-1H-1,2,4-triazol-3-yl)phenyl)butan-2-yl)urea]
pest or weed control at 50 µg/cm2 [1]: 50 to 100%
pest or weed control at 50 µg/cm2 [2]: 50 to 100%
GPA (Biological Results, Insect species) [3]: B (More than 0-Less than 80)
YFM (Biological Results, Insect species) [4]: A (80-100)

CCC(Cc1ccc(-c2ncn(-c3ccc(OC(F)(F)F)cc3)n2)cc1)NC(=O)/N=C1\SCC(=O)N1c1cc(Cl)ccc1C(C)C (centres unmarked) [FB44, (Z)-1-(3-(5-chloro-2-isopropylphenyl)-4-oxothiazolidin-2-ylidene)-3-(1-(4-(1-(4-(trifluoromethoxy)phenyl)-1H-1,2,4-triazol-3-yl)phenyl)butan-2-yl)urea]
pest or weed control at 50 µg/cm2 [1]: 50 to 100%
pest or weed control at 50 µg/cm2 [2]: 50 to 100%
GPA (Biological Results, Insect species) [3]: B (More than 0-Less than 80)
YFM (Biological Results, Insect species) [4]: A (80-100)

CC(C)c1cc(F)ccc1N1C(=O)CS/C1=N\C(=O)NCCc1ccc(-c2ncn(-c3ccc(OC(F)(F)F)cc3)n2)cc1 [P28, (Z)-1-(3-(4-fluoro-2-isopropylphenyl)-4-oxothiazolidin-2-ylidene)-3-(4-(1-(4-(trifluoromethoxy)phenyl)-1H-1,2,4-triazol-3-yl)phenethyl)urea]
mortality at 50 µg/cm2 [1]: 50 to 100%
mortality at 50 µg/cm2 [2]: 50 to 100%
mortality at 200 ppm [3]: 0%
YFM % Control (or Mortality) rating [4]: A (80-100)

COc1ccc(N2C(=O)CS/C2=N\C(=O)NCCc2ccc(-c3ncn(-c4ccc(OC(F)(F)F)cc4)n3)cc2)c(C)c1 [P44, (Z)-1-(3-(4-methoxy-2-methylphenyl)-4-oxothiazolidin-2-ylidene)-3-(4-(1-(4-(trifluoromethoxy)phenyl)-1H-1,2,4-triazol-3-yl)phenethyl)urea]
mortality at 50 µg/cm2 [1]: 50 to 100%
mortality at 50 µg/cm2 [2]: 50 to 100%
mortality at 200 ppm [3]: 0%
YFM % Control (or Mortality) rating [4]: A (80-100)

CC(C)c1cccc(N2C(=O)CS/C2=N\C(=O)NCCc2ccc(-c3ncn(-c4ccc(OC(F)(F)F)cc4)n3)cc2)c1 [P51, (Z)-1-(3-(3-isopropylphenyl)-4-oxothiazolidin-2-ylidene)-3-(4-(1-(4-(trifluoromethoxy)phenyl)-1H-1,2,4-triazol-3-yl)phenethyl)urea]
mortality at 50 µg/cm2 [1]: 50 to 100%
mortality at 50 µg/cm2 [2]: 50 to 100%
mortality at 200 ppm [3]: 0 to 80%
YFM % Control (or Mortality) rating [4]: A (80-100)

Cc1ccc(C(C)C)c(N2C(=O)CS/C2=N\C(=O)NCCc2ccc(-c3ncn(-c4ccc(C(F)(F)F)cc4)n3)cc2)c1 [P52, (Z)-1-(3-(2-isopropyl-5-methylphenyl)-4-oxothiazolidin-2-ylidene)-3-(4-(1-(4-(trifluoromethyl)phenyl)-1H-1,2,4-triazol-3-yl)phenethyl)urea]
mortality at 50 µg/cm2 [1]: 50 to 100%
mortality at 50 µg/cm2 [2]: 50 to 100%
mortality at 200 ppm [3]: 0%
YFM % Control (or Mortality) rating [4]: A (80-100)

CCc1ccccc1N1C(=O)CS/C1=N\C(=O)NCCCCc1ccc(-c2ncn(-c3ccc(OC(F)(F)F)cc3)n2)cc1 [P145, P522, (Z)-1-(3-(2-ethylphenyl)-4-oxothiazolidin-2-ylidene)-3-(4-(4-(1-(4-(trifluoromethoxy)phenyl)-1H-1,2,4-triazol-3-yl)phenyl)butyl)urea]
mortality at 50 µg/cm2 [1]: 50 to 100%
mortality at 50 µg/cm2 [2]: 50 to 100%
mortality at 200 ppm [3]: 0%
YFM % Control (or Mortality) rating [4]: A (80-100)

Cc1ccc(C(C)C)c(N2C(=O)CS/C2=N\C(=O)NCCCCc2ccc(-c3ncn(-c4ccc(OC(F)(F)F)cc4)n3)cc2)c1 [P150, P363, (Z)-1-(3-(2-isopropyl-5-methylphenyl)-4-oxothiazolidin-2-ylidene)-3-(4-(4-(1-(4-(trifluoromethoxy)phenyl)-1H-1,2,4-triazol-3-yl)phenyl)butyl)urea]
mortality at 50 µg/cm2 [1]: 50 to 100%
mortality at 50 µg/cm2 [2]: 50 to 100%
mortality at 200 ppm [3]: 0 to 80%
YFM % Control (or Mortality) rating [4]: A (80-100)

Cc1ccc(C(C)C)c(N2C(=O)CS/C2=N\C(=O)NCCCCc2ccc(-c3ncn(-c4ccc(C(F)(F)F)cc4)n3)cc2)c1 [P159, (Z)-1-(3-(2-isopropyl-5-methylphenyl)-4-oxothiazolidin-2-ylidene)-34-(4-(4-(1-(4-(trifluoromethyl)phenyl)-1H-1,2,4-triazol-3-yl)phenyl)butyl)urea]
mortality at 50 µg/cm2 [1]: 50 to 100%
mortality at 50 µg/cm2 [2]: 50 to 100%
mortality at 200 ppm [3]: 0 to 80%
YFM % Control (or Mortality) rating [4]: A (80-100)
